Reference: US20240174637A1, “DEGRADERS OF GRK2 AND USES THEREOF” (Sonata Therapeutics, Inc., priority 2021, published 2024)
Where a name gives a salt, the structure may show the parent alone. Read-outs that look alike come from different tables or passages of the source.

How the values were obtained:
[1] = test system: PAXF1657 KO Clone #4; assay: 7-day cellular proliferation assay (CellTiter-Glo), PAXF1657 KO Clone #4; assay type: cell-based; settings: 168 h, 7-day, read-out: 7-day proliferation assay: IC50 GeoMean (uM) [Cell Line: PAXF1657 KO Clone #4]
Outline: (§1)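 Cells plated at 500 per well and attached overnight. Next, 10-point inhibitor series added (30 μM-0.0002 μM, 0.3% DMSO) and a day-0 viability plate read. Then, after 3 days, medium with fresh compound. Finally, viability after 4 more days via CellTiter-Glo.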

[2] = test system: PAXF1657 EV; assay: 7-day cellular proliferation assay (CellTiter-Glo), PAXF1657 EV; assay type: cell-based; settings: 168 h, 7-day, read-out: 7-day proliferation assay: IC50 GeoMean (uM) [Cell Line: PAXF1657 EV]
Outline: as §1

[3] = biological target: T1, GRK2 (Homo sapiens, UniProt P25098); assay: GRK2 Degradation Assay and Western Blot in PAXF1657 cells; assay type: cell-based; parameters: endogenous in cells; host or cells: PAXF1657; settings: for GRK2 degradation, dose dependence (FIGS. 1A-1D): 24-hour treatment in PAXF1657 cells; for DC50: PAXF1657, 24 h, read-out: Degradation Assay - Full Dose Response: IC50 (uM) [cell line: PAXF1657, time point: 24 h]
T1 sequence (P25098 1-689): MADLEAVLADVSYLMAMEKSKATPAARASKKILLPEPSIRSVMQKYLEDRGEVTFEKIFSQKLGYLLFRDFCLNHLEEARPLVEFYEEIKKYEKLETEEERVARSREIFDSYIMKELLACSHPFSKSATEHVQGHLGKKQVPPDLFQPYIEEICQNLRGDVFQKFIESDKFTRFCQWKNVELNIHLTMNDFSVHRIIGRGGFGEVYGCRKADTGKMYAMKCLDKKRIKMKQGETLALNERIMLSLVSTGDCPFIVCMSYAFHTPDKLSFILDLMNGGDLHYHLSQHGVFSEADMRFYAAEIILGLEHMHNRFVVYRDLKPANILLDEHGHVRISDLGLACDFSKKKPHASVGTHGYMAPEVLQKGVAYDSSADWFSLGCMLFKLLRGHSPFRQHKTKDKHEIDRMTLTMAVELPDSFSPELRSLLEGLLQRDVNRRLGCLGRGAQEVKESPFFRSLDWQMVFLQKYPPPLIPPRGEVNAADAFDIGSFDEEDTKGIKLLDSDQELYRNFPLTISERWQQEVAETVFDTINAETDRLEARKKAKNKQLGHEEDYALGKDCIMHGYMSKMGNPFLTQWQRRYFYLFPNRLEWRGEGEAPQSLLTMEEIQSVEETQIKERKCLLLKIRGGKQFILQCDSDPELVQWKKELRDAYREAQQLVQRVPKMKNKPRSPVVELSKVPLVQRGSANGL
Outline: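 GRK2 degradation judged by immunoblot: NP40 lysates separated by SDS-PAGE and probed for GRK2 and β-actin, with HRP/ECL detection. Lysates came from PAXF1657 cells exposed to 0–10 μM compound for 6–24 h after reaching 70% confluency.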

[4] = biological target: T1, GRK2; assay: GRK2 Inhibition Assay (TR-FRET, Example 1); assay type: biochemical
Description: Assay: GRK2 enzyme (1 nM final concentration) was diluted in 25 mM HEPES, 10 mM MgCl2, 2 mM DTT, 0.01% Tween-20, and 1 mM EGTA. Then the GRK2 mixture was added into ProxiPlate-384 white plate and pre-incubated for 30 min with test compounds at room temperature. ATP (7 μM final concentration) and Ulight TopoIIα (50 nM final concentration) were added into the assay plate to initiate the reaction and the mixture was incubated at room temperature for 90 min. Then, Eu anti-TopoIIα (0.12 nM final concentration), BSA (0.01% final concentration), and EDTA (11 mM final concentration) in LANCE assay buffer were added into each well. After 60 min incubation time at room temperature, TR-FRET signal was measured by EnVision plate reader.

[5] = 0.3 uM, PAXF1657 EV, 24 hrs, read-out: % GRK2 degradation at 0.3 uM in PAXF1657 EV (24 hrs)
[6] = 1 uM, PAXF1657 EV, 24 hrs, read-out: % GRK2 degradation at 1 uM in PAXF1657 EV (24 hrs)
[7] = 3 uM, PAXF1657 EV, 24 hrs, read-out: % GRK2 degradation at 3 uM in PAXF1657 EV (24 hrs)
[8] = TR-FRET, 7 μM ATP, read-out: Enzymatic GRK2 Assay: IC50 (nM) (Example 1)
[9] = Conc 0.3 uM, read-out: Degradation Assay - 3 point: Degradation (%)
[10] = Conc 1 uM, read-out: Degradation Assay - 3 point: Degradation (%)
[11] = Conc 3 uM, read-out: Degradation Assay - 3 point: Degradation (%)
[12] = Table 4, Example 1 assay, read-out: Enzymatic GRK2 IC50: Av IC50 GRK2

Row | SMILES | IC50 [1] [µM] | IC50 [2] [µM] | inhibition at 0.3 µM [3, 5] [%] | inhibition at 1 µM [3, 6] [%] | inhibition at 3 µM [3, 7] [%] | IC50 [4, 8] [nM] | % GRK2 degradation at 0.1 uM in PAXF1657 EV (24 hrs) ([3]; PAXF1657 EV, 24 hrs) [%] | % GRK2 degradation at 10 uM in PAXF1657 EV (24 hrs) ([3]; PAXF1657 EV, 24 hrs) [%] | GRK2 degradation, dose dependence (FIGS. 1A-1D) [3] | % GRK2 degradation at 0.03 uM in PAXF1657 EV (24 hrs) ([3]; PAXF1657 EV, 24 hrs) [%] | inhibition at 0.3 µM [3, 9] [%] | inhibition at 1 µM [3, 10] [%] | inhibition at 3 µM [3, 11] [%] | IC50 [4, 12] [nM] | DC50 [3] [µM]
1 | C[C@@H](NC(=O)c1cccc(NCc2nnc(-c3ccncn3)n2C)c1)c1cccc(OCCCCCCOCCOCCOCCCCCC(=O)Nc2cccc3c2CN(C2CCC(=O)NC2=O)C3=O)c1 (stereo partly drawn) [Compound D57, N-((1R)-1-(3-((6-(2-(2-((6-((2-(2,6-dioxopiperidin-3-yl)-1-oxoisoindolin-4-yl)amino)-6-oxohexyl)oxy)ethoxy)ethoxy)hexyl)oxy)phenyl)ethyl)-3-(((4-methyl-5-(pyrimidin-4-yl)-4H-1,2,4-triazol-3-yl)methyl)amino)benzamide] | > 10 | > 10 | 70 | 82 | 85 | < 100 |  |  |  |  |  |  |  |  | 
2 | Cn1c(CNc2cccc(C(=O)NCc3cccc(OCCCCCn4cc(CCCC(=O)Nc5cccc6c5CN(C5CCC(=O)NC5=O)C6=O)nn4)c3)c2)nnc1-c1ccncn1 (stereo not shown) [Compound D59] | > 10 | > 10 | 33 | 18 | 53 | < 100 |  |  |  |  |  |  |  |  | 
3 | Cn1c(CNc2cccc(C(=O)NCc3cccc(OCCCCCCn4cc(CCCC(=O)Nc5cccc6c5CN(C5CCC(=O)NC5=O)C6=O)nn4)c3)c2)nnc1-c1ccncn1 (stereo not shown) [Compound D63] | > 10 | > 10 | 34 | 55 | 68 | < 100 |  |  |  |  |  |  |  |  | 
4 | Cn1c(CNc2cccc(C(=O)NCc3cccc(OCCCCCOCCCOCC(=O)Nc4cccc5c4CN(C4CCC(=O)NC4=O)C5=O)c3)c2)nnc1-c1ccncn1 (stereo not shown) [Compound D64, N-(3-((5-(3-(2-((2-(2,6-dioxopiperidin-3-yl)-1-oxoisoindolin-4-yl)amino)-2-oxoethoxy)propoxy)pentyl)oxy)benzyl)-3-(((4-methyl-5-(pyrimidin-4-yl)-4H-1,2,4-triazol-3-yl)methyl)amino)benzamide] | > 10 | > 10 | 62 | 79 | 83 | < 100 | 26 | 77 | Dose dependent |  |  |  |  |  | 
5 | Cn1c(CNc2cccc(C(=O)NCc3cc(OCCCCCCOCCOCCOCCCCCC(=O)Nc4cccc5c4CN(C4CCC(=O)NC4=O)C5=O)ccc3F)c2)nnc1-c1ccncn1 (stereo not shown) [Compound D66, N-(5-((6-(2-(2-((6-((2-(2,6-dioxopiperidin-3-yl)-1-oxoisoindolin-4-yl)amino)-6-oxohexyl)oxy)ethoxy)ethoxy)hexyl)oxy)-2-fluorobenzyl)-3-(((4-methyl-5-(pyrimidin-4-yl)-4H-1,2,4-triazol-3-yl)methyl)amino)benzamide] | > 10 | > 10 | 40 | 55 | 71 | < 100 | 8 | 58 | Dose dependent | 8 |  |  |  |  | 
6 | CC(NC(=O)c1cccc(NCc2nnc(-c3ccncn3)n2C)c1)c1cccc(OCCCCCCOCCOCCOCCCCCC(=O)Nc2cccc3c2CN(C2CCC(=O)NC2=O)C3=O)c1 (stereo not shown) [Compound D67, N-(1-(3-((6-(2-(2-((6-((2-(2,6-dioxopiperidin-3-yl)-1-oxoisoindolin-4-yl)amino)-6-oxohexyl)oxy)ethoxy)ethoxy)hexyl)oxy)phenyl)ethyl)-3-(((4-methyl-5-(pyrimidin-4-yl)-4H-1,2,4-triazol-3-yl)methyl)amino)benzamide] | > 10 | 1 to 10 | 74 | 87 | 90 | < 100 | 60 | 83 | Dose dependent | 38 |  |  |  |  | 
7 | Cc1ncsc1-c1ccc(CNC(=O)[C@@H]2C[C@@H](O)CN2C(=O)[C@@H](NC(=O)CCCCCOCCOCCOCCCCCCOc2cccc([C@H](C)NC(=O)c3cccc(NCc4nnc(-c5ccncn5)n4C)c3)c2)C(C)(C)C)cc1 [Compound D78, (2S,4R)-1-((S)-2-(tert-butyl)-22-(3-((S)-1-(3-(((4-methyl-5-(pyrimidin-4-yl)-4H-1,2,4-triazol-3-yl)methyl)amino)benzamido)ethyl)phenoxy)-4-oxo-10,13,16-trioxa-3-azadocosan-1-oyl)-4-hydroxy-N-(4-(4-methylthiazol-5-yl)benzyl)pyrrolidine-2-carboxamide] | 1 to 10 | < 1 | -12 | -21 | -18 | < 100 |  |  |  |  |  |  |  |  | 
8 | C[C@H](NC(=O)c1cccc(NCc2nnc(-c3ccncn3)n2C)c1)c1ccc(OCCCN2CCN(c3ccc4c(c3)CN(C3CCC(=O)NC3=O)C4=O)CC2)cc1 (stereo partly drawn) [Compound D118, N-((1S)-1-(4-(3-(4-(2-(2,6-dioxopiperidin-3-yl)-1-oxoisoindolin-5-yl)piperazin-1-yl)propoxy)phenyl)ethyl)-3-((4-methyl-5-(pyrimidin-4-yl)-4H-1,2,4-triazol-3-yl)methylamino)benzamide hydrochloride] |  |  |  |  |  |  |  |  |  |  | -13.1 | 3.23 | 5.18 | > 1000 | 
9 | C[C@@H](NC(=O)c1cccc(NCc2nnc(-c3ccncn3)n2C)c1)c1cccc(OCCCCCCOCCN2CCN(c3cc4c(cc3F)C(=O)N(C3CCC(=O)NC3=O)C4=O)CC2)c1 (stereo partly drawn) [Compound D134, N-((1R)-1-(3-(6-(2-(4-(2-(2,6-dioxopiperidin-3-yl)-6-fluoro-1,3-dioxoisoindolin-5-yl)piperazin-1-yl)ethoxy)hexyloxy)phenyl)ethyl)-3-((4-methyl-5-(pyrimidin-4-yl)-4H-1,2,4-triazol-3-yl)methylamino)benzamide] |  |  |  |  |  |  |  |  |  |  | 64.1 | 82.6 | 86.7 | 29.9 | 0.29
10 | C[C@@H](NC(=O)c1cccc(NCc2nnc(-c3ccncn3)n2C)c1)c1cccc(OCCCCCCOCCOCCN2CCN(c3ccc4c(c3)CN(C3CCC(=O)NC3=O)C4=O)CC2)c1 (stereo partly drawn) [Compound D135, N-((1R)-1-(3-(6-(2-(2-(4-(2-(2,6-dioxopiperidin-3-yl)-1-oxoisoindolin-5-yl)piperazin-1-yl)ethoxy)ethoxy)hexyloxy)phenyl)ethyl)-3-((4-methyl-5-(pyrimidin-4-yl)-4H-1,2,4-triazol-3-yl)methylamino)benzamide] |  |  |  |  |  |  |  |  |  |  | 82.2 | 84.2 | 84.3 | 23.7 | 0.06
